# According to patent publication US20260070945A1, “MACROCYCLIC IMMUNOMODULATORS” (Bristol-Myers Squibb Company, priority 2022, published 2026):
# Where a SMILES comes first, the peptide text is derived from it. Bridges are numbered along the chain shown (N, C = ends). [ ]: non-standard residue; d: D form. The star is where a group is joined. ξ: configuration not given here. Phe(3-CF3) = N[C@@H](Cc1cccc(C(F)(F)F)c1)C(=O)O; Phe(4-CF3) = N[C@@H](Cc1ccc(C(F)(F)F)cc1)C(=O)O; Phe(4-COOH) = N[C@@H](Cc1ccc(C(=O)O)cc1)C(=O)O; Bip = N[C@@H](Cc1ccc(-c2ccccc2)cc1)C(=O)O; Phe(3-Me) = Cc1cccc(C[C@H](N)C(=O)O)c1; Phe(4-F) = N[C@@H](Cc1ccc(F)cc1)C(=O)O; NH(CH2)12COOH = O=C(O)CCCCCCCCCCCCN*; Val(3-OH) = CC(C)(O)[C@H](N)C(=O)O; Cha = N[C@@H](CC1CCCCC1)C(=O)O; Cit = NC(=O)NCCC[C@H](N)C(=O)O; Thr(3ξ) = CC(O)[C@H](N)C(=O)O; Carboxymethyl = O=C(O)C*; NMeA = CN[C@@H](C)C(=O)O; Aun = NCCCCCCCCCCC(=O)O; Dab = NCC[C@H](N)C(=O)O; Nva = CCC[C@H](N)C(=O)O; Abu = CC[C@H](N)C(=O)O; AEEA = NCCOCCOCC(=O)O
# Molecular target: T1, PD-1/PD-L1 interaction (PE-labeled human PD-L1-Ig binding to Jurkat cell line over-expressing human PD-1) (Homo sapiens, UniProt Q15116)
# T1 construct: expressed in transfected cells; host or cells: Jurkat
# T1 sequence (Q15116 25-288): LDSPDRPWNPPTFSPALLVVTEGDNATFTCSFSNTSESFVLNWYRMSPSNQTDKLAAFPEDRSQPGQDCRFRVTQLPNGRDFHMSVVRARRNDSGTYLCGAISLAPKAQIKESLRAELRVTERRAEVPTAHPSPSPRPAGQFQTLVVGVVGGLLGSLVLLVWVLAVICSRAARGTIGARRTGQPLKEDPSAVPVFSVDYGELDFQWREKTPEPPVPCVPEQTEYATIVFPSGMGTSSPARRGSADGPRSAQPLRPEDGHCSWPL
# Assay: Jurkat-PD-1 Cell Binding High-Content Screening Assay (CBA)
# Details: PE-labeled PD-L1-Ig 20 nM final, Jurkat-hPD-1 cells; read-out: Jurkat HPD1 PDL1 IC50
# Summary of the method: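 Jurkat cells overexpressing human PD-1 (8×10^3/well, DMEM + 10% FCS) preincubated with compound 2 h at 37 °C, then PE-labelled human PD-L1-Ig (20 nM final) for 1 h. Cells fixed in paraformaldehyde with Hoechst 33342; bound PD-L1 quantified by high-content imaging.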
row,IC50 [nM],SMILES
1,2.1,Cc1cccc(C[C@@H]2NC(=O)[C@H](CC(=O)O)NC(=O)[C@H](Cc3ccc(OCC(=O)O)cc3)NC(=O)[C@H](Cc3ccc(F)cc3)NC(=O)CSC[C@@H](C(=O)N[C@@H](CCN)C(=O)NCCOCCOCC(=O)NCCCCCCCCCCC(=O)O)NC(=O)[C@H](CCC(=O)O)NC(=O)[C@H](C(C)C)NC(=O)[C@H](CC3CCCCC3)NC(=O)[C@H](CCN)NC(=O)[C@@H](CC(C)C)NC(=O)[C@H](C)N(C)C(=O)[C@H](Cc3ccc(OCC(=O)O)cc3)NC(=O)[C@H](Cc3ccc(-c4ccccc4)cc3)NC(=O)[C@H](Cc3ccc(OCC(=O)O)cc3)NC2=O)c1 [Example 2560] ({CH2CO}-[Phe(4-F)]Y(Carboxymethyl)D[Phe(3-Me)]Y(Carboxymethyl)[Bip]Y(Carboxymethyl)[NMeA][dL][Dab][Cha]VEC[Dab][AEEA][Aun]-OH; thioether N-14)
2,24.1,CCC[C@@H]1NC(=O)CSC[C@@H](C(=O)N[C@@H](CCN)C(=O)NCCOCCOCC(=O)NCCCCCCCCCCC(=O)O)NC(=O)[C@H](CCC(=O)O)NC(=O)[C@H](CO)NC(=O)[C@H](CC2CCCCC2)NC(=O)[C@H](CCN)NC(=O)[C@@H](CC(C)C)NC(=O)[C@H](C)N(C)C(=O)[C@H](Cc2ccc(OCC(=O)O)cc2)NC(=O)[C@H](Cc2ccc(-c3ccccc3)cc2)NC(=O)[C@H](Cc2ccc(OCC(=O)O)cc2)NC(=O)[C@H](Cc2cccc(C)c2)NC(=O)[C@H](CC(=O)O)NC(=O)[C@H](Cc2ccc(C(=O)O)cc2)NC1=O [Example 2561] ({CH2CO}-[Nva][Phe(4-COOH)]D[Phe(3-Me)]Y(Carboxymethyl)[Bip]Y(Carboxymethyl)[NMeA][dL][Dab][Cha]SEC[Dab][AEEA][Aun]-OH; thioether N-14)
3,2.1,Cc1cccc(C[C@@H]2NC(=O)[C@H](CC(=O)O)NC(=O)[C@H](Cc3ccc(C(=O)O)cc3)NC(=O)[C@H](C(C)O)NC(=O)CSC[C@@H](C(=O)N[C@@H](CCN)C(=O)NCCOCCOCC(=O)NCCCCCCCCCCC(=O)O)NC(=O)[C@H](CO)NC(=O)[C@H](C(C)(C)O)NC(=O)[C@H](CC3CCCCC3)NC(=O)[C@H](CCN)NC(=O)[C@@H](CC(C)C)NC(=O)[C@H](C)N(C)C(=O)[C@H](Cc3ccc(C(=O)O)cc3)NC(=O)[C@H](Cc3ccc(-c4ccccc4)cc3)NC(=O)[C@H](Cc3ccc(C(=O)O)cc3)NC2=O)c1 (stereo partly drawn) [Example 2562] ({CH2CO}-[Thr(3ξ)][Phe(4-COOH)]D[Phe(3-Me)][Phe(4-COOH)][Bip][Phe(4-COOH)][NMeA][dL][Dab][Cha][Val(3-OH)]SC[Dab][AEEA][Aun]-OH; thioether N-14)
4,4.6,CC(=O)NCCCC[C@@H]1NC(=O)[C@H](C(C)(C)O)NC(=O)[C@H](CC2CCCCC2)NC(=O)[C@H](CCN)NC(=O)[C@@H](CC(C)C)NC(=O)[C@H](C)N(C)C(=O)[C@H](CCC(N)=O)NC(=O)[C@H](Cc2ccc(-c3ccccc3)cc2)NC(=O)[C@H](Cc2ccc(C(=O)O)cc2)NC(=O)[C@H](Cc2cccc(C)c2)NC(=O)[C@H](CC(=O)O)NC(=O)[C@H](Cc2ccc(OCC(=O)O)cc2)NC(=O)[C@H](Cc2ccc(OCC(=O)O)cc2)NC(=O)CSC[C@@H](C(=O)N[C@@H](CCN)C(=O)NCCCCCCCCCCCCC(=O)O)NC1=O [Example 2563] ({CH2CO}-Y(Carboxymethyl)Y(Carboxymethyl)D[Phe(3-Me)][Phe(4-COOH)][Bip]Q[NMeA][dL][Dab][Cha][Val(3-OH)]K(Ac)C[Dab]-{NH(CH2)12COOH}; thioether N-14)
5,1.1,CC(=O)NCCCC[C@@H]1NC(=O)[C@H](C(C)(C)O)NC(=O)[C@H](CC2CCCCC2)NC(=O)[C@H](CCN)NC(=O)[C@@H](CC(C)C)NC(=O)[C@H](C)N(C)C(=O)[C@H](CCC(N)=O)NC(=O)[C@H](Cc2ccc(-c3ccccc3)cc2)NC(=O)[C@H](Cc2ccc(C(=O)O)cc2)NC(=O)[C@H](Cc2cccc(C(F)(F)F)c2)NC(=O)[C@H](CC(=O)O)NC(=O)[C@H](Cc2ccc(OCC(=O)O)cc2)NC(=O)[C@H](Cc2ccc(OCC(=O)O)cc2)NC(=O)CSC[C@@H](C(=O)N[C@@H](CCN)C(=O)NCCCCCCCCCCC(=O)O)NC1=O [Example 2564] ({CH2CO}-Y(Carboxymethyl)Y(Carboxymethyl)D[Phe(3-CF3)][Phe(4-COOH)][Bip]Q[NMeA][dL][Dab][Cha][Val(3-OH)]K(Ac)C[Dab][Aun]-OH; thioether N-14)
6,3.3,CC(=O)NCCCC[C@@H]1NC(=O)[C@H](C(C)(C)O)NC(=O)[C@H](CC2CCCCC2)NC(=O)[C@H](CCN)NC(=O)[C@@H](CC(C)C)NC(=O)[C@H](C)N(C)C(=O)[C@H](CCC(N)=O)NC(=O)[C@H](Cc2ccc(-c3ccccc3)cc2)NC(=O)[C@H](Cc2ccc(C(=O)O)cc2)NC(=O)[C@H](Cc2cccc(C(F)(F)F)c2)NC(=O)[C@H](CC(=O)O)NC(=O)[C@H](Cc2ccc(OCC(=O)O)cc2)NC(=O)[C@H](Cc2ccc(OCC(=O)O)cc2)NC(=O)CSC[C@@H](C(=O)N[C@@H](CCN)C(=O)NCCCCCCCCCCCCC(=O)O)NC1=O [Example 2565] ({CH2CO}-Y(Carboxymethyl)Y(Carboxymethyl)D[Phe(3-CF3)][Phe(4-COOH)][Bip]Q[NMeA][dL][Dab][Cha][Val(3-OH)]K(Ac)C[Dab]-{NH(CH2)12COOH}; thioether N-14)
7,4.5,CC(C)C[C@H]1NC(=O)[C@H](C)N(C)C(=O)[C@H](Cc2ccc(C(=O)O)cc2)NC(=O)[C@H](Cc2ccc(-c3ccccc3)cc2)NC(=O)[C@H](Cc2ccc(C(=O)O)cc2)NC(=O)[C@H](Cc2cccc(C(F)(F)F)c2)NC(=O)[C@H](CC(=O)O)NC(=O)[C@H](Cc2ccc(C(=O)O)cc2)NC(=O)[C@H](C(C)O)NC(=O)CSC[C@@H](C(=O)N[C@@H](CCN)C(=O)NCCCCCCCCCCC(=O)O)NC(=O)[C@H](C(C)O)NC(=O)[C@H](C(C)C)NC(=O)[C@H](CC2CCCCC2)NC(=O)[C@H](CCN)NC1=O (stereo partly drawn) [Example 2566] ({CH2CO}-[Thr(3ξ)][Phe(4-COOH)]D[Phe(3-CF3)][Phe(4-COOH)][Bip][Phe(4-COOH)][NMeA][dL][Dab][Cha]V[Thr(3ξ)]C[Dab][Aun]-OH; thioether N-14)
8,2.2,CC(C)C[C@H]1NC(=O)[C@H](C)N(C)C(=O)[C@H](Cc2ccc(C(=O)O)cc2)NC(=O)[C@H](Cc2ccc(-c3ccccc3)cc2)NC(=O)[C@H](Cc2ccc(C(=O)O)cc2)NC(=O)[C@H](Cc2cccc(C(F)(F)F)c2)NC(=O)[C@H](CC(=O)O)NC(=O)[C@H](Cc2ccc(C(=O)O)cc2)NC(=O)[C@H](C(C)O)NC(=O)CSC[C@@H](C(=O)N[C@@H](CCN)C(=O)NCCCCCCCCCCC(=O)O)NC(=O)[C@H](CO)NC(=O)[C@H](C(C)(C)O)NC(=O)[C@H](CC2CCCCC2)NC(=O)[C@H](CCN)NC1=O (stereo partly drawn) [Example 2567] ({CH2CO}-[Thr(3ξ)][Phe(4-COOH)]D[Phe(3-CF3)][Phe(4-COOH)][Bip][Phe(4-COOH)][NMeA][dL][Dab][Cha][Val(3-OH)]SC[Dab][Aun]-OH; thioether N-14)
9,22.8,CC(C)C[C@H]1NC(=O)[C@H](C)N(C)C(=O)[C@H](Cc2ccc(C(=O)O)cc2)NC(=O)[C@H](Cc2ccc(-c3ccccc3)cc2)NC(=O)[C@H](Cc2ccc(C(=O)O)cc2)NC(=O)[C@H](Cc2cccc(C(F)(F)F)c2)NC(=O)[C@H](CC(=O)O)NC(=O)[C@H](Cc2ccc(C(=O)O)cc2)NC(=O)[C@H](C(C)O)NC(=O)CSC[C@@H](C(=O)N[C@@H](CCN)C(=O)NCCCCCCCCCCCCC(=O)O)NC(=O)[C@H](CO)NC(=O)[C@H](C(C)(C)O)NC(=O)[C@H](CC2CCCCC2)NC(=O)[C@H](CCN)NC1=O (stereo partly drawn) [Example 2568] ({CH2CO}-[Thr(3ξ)][Phe(4-COOH)]D[Phe(3-CF3)][Phe(4-COOH)][Bip][Phe(4-COOH)][NMeA][dL][Dab][Cha][Val(3-OH)]SC[Dab]-{NH(CH2)12COOH}; thioether N-14)
10,45.3,CC[C@@H]1NC(=O)CSC[C@@H](C(=O)N[C@@H](CCN)C(=O)NCCCCCCCCCCCCC(=O)O)NC(=O)[C@H](CO)NC(=O)[C@H](C(C)(C)O)NC(=O)[C@H](CC2CCCCC2)NC(=O)[C@H](CCN)NC(=O)[C@@H](CC(C)C)NC(=O)[C@H](C)N(C)C(=O)[C@H](Cc2ccc(C(=O)O)cc2)NC(=O)[C@H](Cc2ccc(-c3ccccc3)cc2)NC(=O)[C@H](Cc2ccc(C(=O)O)cc2)NC(=O)[C@H](Cc2cccc(C(F)(F)F)c2)NC(=O)[C@H](CC(=O)O)NC(=O)[C@H](Cc2ccc(C(=O)O)cc2)NC1=O [Example 2569] ({CH2CO}-[Abu][Phe(4-COOH)]D[Phe(3-CF3)][Phe(4-COOH)][Bip][Phe(4-COOH)][NMeA][dL][Dab][Cha][Val(3-OH)]SC[Dab]-{NH(CH2)12COOH}; thioether N-14)
11,2.7,CC(=O)NCCCC[C@@H]1NC(=O)[C@H](C(C)(C)O)NC(=O)[C@H](CC2CCCCC2)NC(=O)[C@H](CCN)NC(=O)[C@@H](CC(C)C)NC(=O)[C@H](C)N(C)C(=O)[C@H](CCCNC(N)=O)NC(=O)[C@H](Cc2ccc(-c3ccccc3)cc2)NC(=O)[C@H](Cc2ccc(C(=O)O)cc2)NC(=O)[C@H](Cc2cccc(C(F)(F)F)c2)NC(=O)[C@H](CC(=O)O)NC(=O)[C@H](Cc2ccc(OCC(=O)O)cc2)NC(=O)[C@H](Cc2ccc(OCC(=O)O)cc2)NC(=O)CSC[C@@H](C(=O)N[C@@H](CCN)C(=O)NCCCCCCCCCCC(=O)O)NC1=O [Example 2570] ({CH2CO}-Y(Carboxymethyl)Y(Carboxymethyl)D[Phe(3-CF3)][Phe(4-COOH)][Bip][Cit][NMeA][dL][Dab][Cha][Val(3-OH)]K(Ac)C[Dab][Aun]-OH; thioether N-14)
12,108,Cc1cccc(C[C@@H]2NC(=O)[C@H](CC(=O)O)NC(=O)[C@H](Cc3ccc(C(F)(F)F)cc3)NC(=O)[C@H](C(C)O)NC(=O)CSC[C@@H](C(=O)N[C@@H](CCN)C(=O)NCCCCCCCCCCC(=O)O)NC(=O)[C@H](C(C)O)NC(=O)[C@H](C(C)C)NC(=O)[C@H](CC3CCCCC3)NC(=O)[C@H](CCN)NC(=O)[C@@H](CC(C)C)NC(=O)[C@H](C)N(C)C(=O)[C@H](Cc3ccc(C(=O)O)cc3)NC(=O)[C@H](Cc3ccc(-c4ccccc4)cc3)NC(=O)[C@H](Cc3ccc(C(=O)O)cc3)NC2=O)c1 (stereo partly drawn) [Example 2571] ({CH2CO}-[Thr(3ξ)][Phe(4-CF3)]D[Phe(3-Me)][Phe(4-COOH)][Bip][Phe(4-COOH)][NMeA][dL][Dab][Cha]V[Thr(3ξ)]C[Dab][Aun]-OH; thioether N-14)
